Blank lines part the entries; values can stand above or below the compound they belong to.
Legend:
Dipeptidyl peptidase 4 [1] = molecular target: T1, Dipeptidyl peptidase 4 (Homo sapiens, UniProt P27487); test: Inhibition of human recombinant DPP-4 using H-Gly-Pro-aminomethylcoumarin as substrate
Target sequence in this assay (P27487 whole entry): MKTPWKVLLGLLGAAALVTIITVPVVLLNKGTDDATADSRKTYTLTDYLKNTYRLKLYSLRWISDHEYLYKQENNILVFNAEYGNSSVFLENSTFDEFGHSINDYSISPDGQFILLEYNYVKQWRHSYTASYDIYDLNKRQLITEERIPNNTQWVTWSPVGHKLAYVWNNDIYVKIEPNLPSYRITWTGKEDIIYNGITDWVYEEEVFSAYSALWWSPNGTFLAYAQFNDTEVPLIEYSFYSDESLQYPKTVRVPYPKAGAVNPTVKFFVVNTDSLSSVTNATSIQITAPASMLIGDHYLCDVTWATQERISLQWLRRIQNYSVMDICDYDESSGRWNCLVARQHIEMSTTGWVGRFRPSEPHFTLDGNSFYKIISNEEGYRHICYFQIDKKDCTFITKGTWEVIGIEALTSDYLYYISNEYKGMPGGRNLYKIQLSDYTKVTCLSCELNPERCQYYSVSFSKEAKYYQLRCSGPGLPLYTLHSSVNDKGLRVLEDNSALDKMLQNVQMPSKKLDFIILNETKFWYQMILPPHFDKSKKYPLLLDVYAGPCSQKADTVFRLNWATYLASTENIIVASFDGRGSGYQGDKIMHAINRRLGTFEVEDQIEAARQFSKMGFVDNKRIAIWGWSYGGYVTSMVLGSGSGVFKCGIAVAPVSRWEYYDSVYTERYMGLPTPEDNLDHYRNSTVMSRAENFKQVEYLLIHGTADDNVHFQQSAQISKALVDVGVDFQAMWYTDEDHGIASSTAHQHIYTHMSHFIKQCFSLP

Dipeptidyl peptidase 4 [2] = molecular target: T1, Dipeptidyl peptidase 4; test: Inhibition of human recombinant DPP-4 using H-Gly-Pro-aminomethylcoumarin as substrate at 100 uM relative to control
Target sequence in this assay (P27487 whole entry, looked up): as the sequence (P27487 whole entry) above

Homo sapiens [3] = species: Homo sapiens; test: Selectivity index, ratio of IC50 for human recombinant DPP-4 to IC50 for human recombinant DPP-8
Homo sapiens [4] = species: Homo sapiens; test: Selectivity index, ratio of IC50 for human recombinant DPP-4 to IC50 for human recombinant DPP-9
Mus musculus [5] = test: Hypoglycemic activity in ICR mouse assessed as reduction in blood glucose level at 30 mg/kg measured at 120 mins; type: ADME, organism-based; design: scale not given: the % may be the effect or the level left; settings: in vivo, 2 h
Mus musculus [6] = test: Hypoglycemic activity in ICR mouse assessed as reduction in blood glucose level at 3 mg/kg measured at 120 mins; type: ADME, organism-based; design: scale not given: the % may be the effect or the level left; settings: in vivo, 2 h
[7] = Metabolic stability in human liver microsomes assessed as intrinsic clearance; type: ADME, Microsome; settings: read-out: CLH
[8] = Tmax in ICR mouse at 1 to 10 mg/kg, po; type: ADME, organism-based; settings: in vivo, dose 1-10 mg/kg
[9] = Cmax in ICR mouse at 1 to 10 mg/kg, po; type: ADME, organism-based; design: route po; settings: in vivo, dose 1-10 mg/kg
[10] = MRT in ICR mouse at 1 to 10 mg/kg, po; type: ADME, organism-based; settings: in vivo, dose 1-10 mg/kg
[11] = Half life in ICR mouse at 1 to 10 mg/kg, po; type: ADME, organism-based; settings: in vivo, dose 1-10 mg/kg
Dipeptidyl peptidase 4 [12] = molecular target: T1, Dipeptidyl peptidase 4
Target sequence in this assay (P27487 whole entry): as above

Homo sapiens [13] = species: Homo sapiens; test: Selectivity index, ratio of IC50 for DPP-8 (unknown origin) to IC50 for DPP-4 (unknown origin)
Homo sapiens [14] = species: Homo sapiens; test: Selectivity index, ratio of IC50 for DPP-9 (unknown origin) to IC50 for DPP-4 (unknown origin)
Mus musculus [15] = test: Hypoglycemic activity in C57BL/6J mouse assessed as reduction in blood glucose level at 5 mg/kg, iv measured for 180 mins; type: ADME, organism-based; design: scale not given: the % may be the effect or the level left; settings: in vivo, 3 h
Mus musculus [16] = test: Hypoglycemic activity in C57BL/6J mouse assessed as reduction in blood glucose level at 10 mg/kg, iv measured for 180 mins; type: ADME, organism-based; design: scale not given: the % may be the effect or the level left; settings: in vivo, 3 h
Mus musculus [17] = test: Hypoglycemic activity in C57BL/6J mouse assessed as reduction in blood glucose level at 20 mg/kg, iv measured for 180 mins; type: ADME, organism-based; design: scale not given: the % may be the effect or the level left; settings: in vivo, 3 h
[18] = Half life in Sprague-Dawley rat at 3 mg/kg, po; type: ADME, organism-based; settings: in vivo
Mus musculus [19] = test: Antidiabetic activity in C57BL/6J mouse assessed as decrease in AUC of glucose at 3 mg/kg, po; type: functional; design: scale not given: the % may be the effect or the level left
Mus musculus [20] = test: Hypoglycemic activity in C57BL/6J mouse assessed as reduction in blood glucose level at 3 mg/kg, iv measured for 180 mins; type: ADME, organism-based; design: scale not given: the % may be the effect or the level left; settings: in vivo, 3 h
Rattus norvegicus = test: Antihyperglycemic activity in STZ-induced diabetic rat model assessed as reduction in blood glucose level at 100 mg/kg, po measured upto 24 hrs; type: functional; design: scale not given: the % may be the effect or the level left
[21] = Bioavailability in rat; type: ADME, organism-based; settings: in vivo
[22] = Bioavailability in dog; type: ADME, organism-based, Canis lupus familiaris; settings: in vivo
[23] = Bioavailability in monkey; type: ADME, organism-based, Macaca mulatta; settings: rhesus monkey, in vivo
Mus musculus [24] = test: Hypoglycemic activity in KKAy mouse assessed as reduction in blood glucose level at 30 mg/kg; type: ADME, organism-based; design: scale not given: the % may be the effect or the level left; settings: in vivo
Mus musculus [25] = test: Hypoglycemic activity in KKAy mouse assessed as reduction in blood glucose level at 3 mg/kg; type: ADME, organism-based; design: scale not given: the % may be the effect or the level left; settings: in vivo
Dipeptidyl peptidase 4 [26] = molecular target: T1, Dipeptidyl peptidase 4; test: Inhibition of DPP-4 (unknown origin) using (H-Gly-Pro-AMC) as substrate
Target sequence in this assay (P27487 whole entry): as above

Dipeptidyl peptidase 8 = Dipeptidyl peptidase 8 (Homo sapiens, UniProt Q6V1X1); test: Inhibition of human recombinant DPP-8
Dipeptidyl peptidase 9 = Dipeptidyl peptidase 9 (Homo sapiens, UniProt Q86TI2); test: Inhibition of human recombinant DPP-9
[27] = Cytotoxicity against human L02 cells assessed as cell viability after 72 hrs by MTT assay; type: toxicity, cell-based; settings: read-out: Activity
[28] = Metabolic stability in rat plasma assessed as parent compound remaining; type: ADME, cell-free
[29] = Metabolic stability in rat liver microsome assessed as parent compound remaining; type: ADME; settings: microsomes
Mus musculus [30] = test: Hypoglycemic activity in mouse assessed as reduction in blood glucose level at 10 mg/kg measured after 120 mins; type: ADME, organism-based; design: scale not given: the % may be the effect or the level left; settings: in vivo, 2 h
[31] = Clearance in mouse at 3 to 10 mg/kg, iv; type: ADME, organism-based; settings: in vivo, dose 3-10 mg/kg
[32] = Half life in mouse at 3 to 10 mg/kg, iv; type: ADME, organism-based; settings: in vivo, dose 3-10 mg/kg
[33] = Biovailability in mouse at 3 to 10 mg/kg, iv; type: ADME, organism-based; settings: in vivo, dose 3-10 mg/kg

Chain of Dipeptidyl peptidase 9 (Q86TI2 whole entry): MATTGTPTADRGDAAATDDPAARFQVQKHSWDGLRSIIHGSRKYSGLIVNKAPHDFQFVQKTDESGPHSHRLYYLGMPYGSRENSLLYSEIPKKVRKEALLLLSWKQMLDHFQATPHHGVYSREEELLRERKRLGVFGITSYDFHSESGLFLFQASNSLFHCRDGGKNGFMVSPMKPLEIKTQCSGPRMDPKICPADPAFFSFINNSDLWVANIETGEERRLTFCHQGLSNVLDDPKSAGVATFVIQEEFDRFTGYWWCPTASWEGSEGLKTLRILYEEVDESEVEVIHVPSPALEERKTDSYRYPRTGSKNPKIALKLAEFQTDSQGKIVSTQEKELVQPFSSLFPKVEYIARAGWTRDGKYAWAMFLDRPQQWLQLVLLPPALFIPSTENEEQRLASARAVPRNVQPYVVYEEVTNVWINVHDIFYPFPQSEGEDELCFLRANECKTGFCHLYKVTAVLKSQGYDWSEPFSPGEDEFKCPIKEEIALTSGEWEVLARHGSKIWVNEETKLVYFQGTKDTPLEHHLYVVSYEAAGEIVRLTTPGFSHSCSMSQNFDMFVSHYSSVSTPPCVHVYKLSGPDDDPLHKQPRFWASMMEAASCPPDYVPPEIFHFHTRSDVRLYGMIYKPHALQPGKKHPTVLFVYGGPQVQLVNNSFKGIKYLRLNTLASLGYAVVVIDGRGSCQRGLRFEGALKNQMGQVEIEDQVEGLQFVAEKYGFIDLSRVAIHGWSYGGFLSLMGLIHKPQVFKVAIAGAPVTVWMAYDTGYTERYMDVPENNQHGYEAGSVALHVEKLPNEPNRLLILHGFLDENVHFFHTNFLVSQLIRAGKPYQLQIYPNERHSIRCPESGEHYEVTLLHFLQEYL
Chain of Dipeptidyl peptidase 8 (Q6V1X1 whole entry): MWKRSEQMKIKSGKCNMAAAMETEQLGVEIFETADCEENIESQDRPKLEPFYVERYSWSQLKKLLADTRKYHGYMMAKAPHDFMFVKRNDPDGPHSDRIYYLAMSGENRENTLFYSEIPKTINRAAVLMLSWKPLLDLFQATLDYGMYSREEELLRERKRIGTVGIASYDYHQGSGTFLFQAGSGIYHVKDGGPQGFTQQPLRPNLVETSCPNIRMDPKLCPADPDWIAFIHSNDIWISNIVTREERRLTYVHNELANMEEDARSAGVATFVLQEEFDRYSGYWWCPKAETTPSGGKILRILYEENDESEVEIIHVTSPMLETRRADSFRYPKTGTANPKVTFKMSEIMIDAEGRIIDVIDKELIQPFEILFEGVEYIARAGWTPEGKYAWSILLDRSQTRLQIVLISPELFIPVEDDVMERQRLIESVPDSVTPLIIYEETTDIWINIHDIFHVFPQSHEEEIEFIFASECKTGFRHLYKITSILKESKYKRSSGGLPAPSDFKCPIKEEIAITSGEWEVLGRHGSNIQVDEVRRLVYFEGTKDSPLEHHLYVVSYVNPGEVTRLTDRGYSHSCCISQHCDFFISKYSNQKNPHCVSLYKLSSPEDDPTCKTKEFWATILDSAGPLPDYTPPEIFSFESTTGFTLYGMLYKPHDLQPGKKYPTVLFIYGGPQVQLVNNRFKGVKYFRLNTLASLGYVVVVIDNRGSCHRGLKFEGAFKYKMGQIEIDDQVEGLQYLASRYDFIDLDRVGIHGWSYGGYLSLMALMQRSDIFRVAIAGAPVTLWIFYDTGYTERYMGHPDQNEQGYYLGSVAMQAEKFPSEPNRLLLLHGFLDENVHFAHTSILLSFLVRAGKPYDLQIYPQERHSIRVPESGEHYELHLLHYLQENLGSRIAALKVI

Structure (SMILES): NCc1c(-c2ccc(Cl)cc2Cl)nc2ccccn12
IC50 (Dipeptidyl peptidase 4 [1]): 130 nM
inhibition (Dipeptidyl peptidase 4 [2]): 75%
Ratio IC50 (Homo sapiens [3]): 215
Ratio IC50 (Homo sapiens [4]): 192
Activity (Mus musculus [5]): 33.53%
Activity (Mus musculus [6]): 35%

Structure (SMILES): N#C[C@@H]1C[C@H]2[C@H](CC2(F)F)N1C(=O)[C@@H](N)C12CC3CC(CC(O)(C3)C1)C2
half-life [18]: 55.2 min

Structure (SMILES): N[C@@H](CC(=O)N1CCn2c(nnc2C(F)(F)F)C1)Cc1cc(F)c(F)cc1F [SITAGLIPTIN]
Activity (Mus musculus [19]): 17.9%
Activity (Mus musculus [20]): 27.8%
Activity (Rattus norvegicus): 31.9%

Structure (SMILES): N#C[C@@H]1CCCN1C(=O)CNC1C[C@H]2CC(O)C[C@H]2C1 (some centres not stated)
Activity (Mus musculus [24]): 52.2%
Activity (Mus musculus [25]): 61.9%

Structure (SMILES): CC#CCn1c(N2CCC[C@@H](N)C2)cc(=O)n(Cc2ccc(Cl)c(C(=O)N(C)C)c2)c1=O
IC50 (Dipeptidyl peptidase 8): > 100 µM
IC50 (Dipeptidyl peptidase 9): > 100 µM
viability at 72 h [27]: 100%
Stability [28]: 99.38%
Stability [29]: 101.83%
Activity (Mus musculus [30]): 16.4%
clearance [31]: 5.83 mL/min/kg
half-life [32]: 666 min
bioavailability [33]: 27.3%

Continued, values first:

CLint scaled [7]: < 100 mL/min/kg
Tmax [8]: 2 h
Cmax [9]: 719 ng/mL
MRT [10]: 2.72 h
half-life [11]: 61.8 min
Structure (SMILES): N[C@@H](CCNC(=O)N1CCn2c(nnc2C(F)(F)F)C1)Cc1cc(F)c(F)cc1F

IC50 (Dipeptidyl peptidase 4 [12]): 28.5 µM
Ratio IC50 (Homo sapiens [13]): 8
Ratio IC50 (Homo sapiens [14]): 8
Activity (Mus musculus [15]): 19.6%
Activity (Mus musculus [16]): 33.6%
Activity (Mus musculus [17]): 47.1%
Structure (SMILES): Brc1nc2n(n1)CC(c1cc3ccccc3o1)=NN2

IC50 (Dipeptidyl peptidase 4 [12]): 0.0043 µM
bioavailability [21]: 57%
bioavailability [22]: 91%
bioavailability [23]: 87%
Structure (SMILES): CC1c2nnc(C(F)(F)F)n2CCN1C(=O)C[C@H](N)Cc1cc(F)c(F)cc1F.Cl (some centres not stated)

IC50 (Dipeptidyl peptidase 4 [26]): 1.12 nM
Structure (SMILES): Cc1ccc2cc(CNc3nc(C)cs3)n(/N=C/c3ccc(O)cc3)c(=O)c2c1
